A short description of series [1]: Selectivity ratio of IC50 for MMP2 to IC50 for MMP13.
In series [2] the target is 72 kDa type IV collagenase (Homo sapiens, UniProt P08253). Description: Inhibition of MMP2.
The target in the next series is Collagenase 3 (Homo sapiens, UniProt P45452). Kind of series: Inhibition of MMP13.
Series [3] in a line: Oral bioavailability in rat. Conditions: in vivo. It counts as ADME, organism-based.
A further series has as its target Interstitial collagenase (Homo sapiens, UniProt P03956). Description: Inhibition of MMP1.
The nature of series [4]: Half life in rat. Type of series: ADME, organism-based. Conditions: in vivo.
The next series concerns the target Stromelysin-1 (Homo sapiens, UniProt P08254). Kind of series: Inhibition of MMP3.
The target in a further series is Neutrophil collagenase (Homo sapiens, UniProt P22894). Kind of series: Inhibition of MMP8.
Sequence of Neutrophil collagenase (P22894 whole entry): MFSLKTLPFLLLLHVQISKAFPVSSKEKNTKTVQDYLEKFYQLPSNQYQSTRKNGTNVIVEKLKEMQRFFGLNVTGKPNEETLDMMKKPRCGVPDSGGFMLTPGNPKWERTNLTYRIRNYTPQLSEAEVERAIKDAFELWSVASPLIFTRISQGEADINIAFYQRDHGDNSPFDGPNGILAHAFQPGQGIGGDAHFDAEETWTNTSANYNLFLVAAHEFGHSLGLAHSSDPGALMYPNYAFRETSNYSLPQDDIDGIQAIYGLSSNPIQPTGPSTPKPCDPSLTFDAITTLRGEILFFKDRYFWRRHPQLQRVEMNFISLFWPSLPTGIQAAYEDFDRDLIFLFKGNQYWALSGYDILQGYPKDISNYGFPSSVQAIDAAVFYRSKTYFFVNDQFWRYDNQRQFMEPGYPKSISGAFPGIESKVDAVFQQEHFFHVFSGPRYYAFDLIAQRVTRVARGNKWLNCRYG
Another series has as its target T1, Matrilysin (Homo sapiens, UniProt P09237).
T1 sequence (P09237 whole entry): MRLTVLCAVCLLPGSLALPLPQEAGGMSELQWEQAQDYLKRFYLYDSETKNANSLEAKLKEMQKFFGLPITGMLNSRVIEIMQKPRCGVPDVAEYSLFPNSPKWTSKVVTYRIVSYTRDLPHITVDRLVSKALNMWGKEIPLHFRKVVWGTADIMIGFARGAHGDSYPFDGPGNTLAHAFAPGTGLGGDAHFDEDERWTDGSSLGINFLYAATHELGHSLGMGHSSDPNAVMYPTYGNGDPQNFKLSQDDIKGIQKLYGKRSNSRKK
Description: Inhibition of MMP7.

Sequence of 72 kDa type IV collagenase (P08253 whole entry): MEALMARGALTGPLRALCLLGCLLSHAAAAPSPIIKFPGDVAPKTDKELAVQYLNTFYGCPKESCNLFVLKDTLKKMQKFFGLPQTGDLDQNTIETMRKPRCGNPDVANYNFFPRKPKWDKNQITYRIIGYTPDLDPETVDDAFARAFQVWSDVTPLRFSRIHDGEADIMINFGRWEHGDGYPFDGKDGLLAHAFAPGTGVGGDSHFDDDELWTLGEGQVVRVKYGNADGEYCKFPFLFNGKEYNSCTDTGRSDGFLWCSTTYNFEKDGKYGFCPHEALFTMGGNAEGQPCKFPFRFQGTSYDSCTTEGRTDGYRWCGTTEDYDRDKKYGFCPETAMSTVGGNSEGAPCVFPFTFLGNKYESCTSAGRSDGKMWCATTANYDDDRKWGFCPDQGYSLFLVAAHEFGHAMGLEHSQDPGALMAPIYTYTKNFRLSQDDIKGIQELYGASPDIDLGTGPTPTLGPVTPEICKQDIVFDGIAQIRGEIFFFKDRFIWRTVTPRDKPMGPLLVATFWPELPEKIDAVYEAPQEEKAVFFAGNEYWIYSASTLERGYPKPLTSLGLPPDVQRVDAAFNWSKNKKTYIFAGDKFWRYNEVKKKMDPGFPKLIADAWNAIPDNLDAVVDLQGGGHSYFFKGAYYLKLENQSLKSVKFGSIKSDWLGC
Sequence of Stromelysin-1 (P08254 whole entry): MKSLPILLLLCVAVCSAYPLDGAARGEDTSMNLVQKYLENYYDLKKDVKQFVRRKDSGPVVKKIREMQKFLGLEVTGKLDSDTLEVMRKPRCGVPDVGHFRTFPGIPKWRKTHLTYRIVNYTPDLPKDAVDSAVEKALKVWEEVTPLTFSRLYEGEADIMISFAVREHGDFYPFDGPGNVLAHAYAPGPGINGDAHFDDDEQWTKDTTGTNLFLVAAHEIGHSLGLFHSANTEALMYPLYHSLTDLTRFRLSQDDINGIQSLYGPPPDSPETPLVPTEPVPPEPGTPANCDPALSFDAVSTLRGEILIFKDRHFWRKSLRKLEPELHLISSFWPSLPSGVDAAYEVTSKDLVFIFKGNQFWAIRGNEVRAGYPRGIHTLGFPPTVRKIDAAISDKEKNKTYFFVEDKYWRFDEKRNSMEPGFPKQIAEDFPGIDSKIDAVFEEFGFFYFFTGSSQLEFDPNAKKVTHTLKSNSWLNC
Sequence of Interstitial collagenase (P03956 whole entry): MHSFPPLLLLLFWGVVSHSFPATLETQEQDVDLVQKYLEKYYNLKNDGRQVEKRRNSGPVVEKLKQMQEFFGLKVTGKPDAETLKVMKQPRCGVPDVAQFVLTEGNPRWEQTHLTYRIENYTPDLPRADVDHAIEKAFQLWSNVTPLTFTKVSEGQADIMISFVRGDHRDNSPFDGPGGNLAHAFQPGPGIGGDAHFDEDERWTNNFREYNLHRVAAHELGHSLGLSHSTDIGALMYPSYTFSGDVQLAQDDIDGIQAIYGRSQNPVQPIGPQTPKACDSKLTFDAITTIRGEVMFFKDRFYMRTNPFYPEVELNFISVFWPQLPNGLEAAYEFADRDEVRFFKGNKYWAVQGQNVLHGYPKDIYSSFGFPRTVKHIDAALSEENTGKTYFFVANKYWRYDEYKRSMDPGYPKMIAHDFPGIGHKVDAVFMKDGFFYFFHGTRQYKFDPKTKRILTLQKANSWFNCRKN

As to `CCOc1ccccc1C1CCN(c2ccc(S(=O)(=O)C3(C(=O)NO)CCOCC3)cc2)CC1`, the Ratio IC50 in [1] is 88.6.
By IC50 is commonly meant the concentration needed to halve the response being measured. A high value points to weaker potency. Take `O=C(NO)C1(S(=O)(=O)c2ccc(N3CCN(c4ccc(C(F)(F)F)cc4)CC3)cc2)CCN(C2CC2)CC1`: the IC50 worked out at 32.6 nM in [2] and 2.4 nM against Collagenase 3. Also, in series [1], the Ratio IC50 was found to be 13.6.
For the compound `O=C(NO)C1(S(=O)(=O)c2ccc(N3CCC(c4ccc(Cl)cc4)CC3)cc2)CCOCC1`, the Ratio IC50 in series [1] is 2.9.
For `COc1ccc(C(C)C)cc1C1CCN(c2ccc(S(=O)(=O)C3(C(=O)NO)CCOCC3)cc2)CC1`, the IC50 in series [2] is > 10000 nM; against Collagenase 3, 70 nM. Moreover, the Ratio IC50 in series [1] came out at 143.
What is called bioavailability is dose-corrected exposure relative to a reference, in per cent. A higher bioavailability goes with good availability. The term half-life denotes how long it takes for the measured level to halve. Higher therefore signals slow decline. For `COc1ccc(N2CCN(c3ccc(S(=O)(=O)C4(C(=O)NO)CCN(C5CC5)CC4)cc3)CC2)cc1`, the bioavailability in [3] was 20.7%. Moreover, the IC50 was 5.3 nM in series [2]; > 10000 nM on Interstitial collagenase; 24.5 nM against Stromelysin-1; 0.42 nM against Collagenase 3; 59.2 nM against Neutrophil collagenase. For the same compound, the half-life in series [4] is 0.24 h.
In the case of `O=C(NO)C1(S(=O)(=O)c2ccc(N3CCC(c4ccccc4-c4ccc(F)cc4)CC3)cc2)CCOCC1`, in series [1], the Ratio IC50 worked out at 160.
Turning to `COc1ccccc1C1CCN(c2ccc(S(=O)(=O)C3(C(=O)NO)CCOCC3)cc2)CC1`, the values for the IC50 (in [2]; at Collagenase 3) were 3700 nM and 17.5 nM, respectively. Besides, the Ratio IC50 in [1] came out at 211.
In turn, `O=C(NO)C1(S(=O)(=O)c2ccc(N3CCN(c4ccc(C(F)(F)F)cc4)CC3)cc2)CCOCC1` registered a bioavailability in [3] of 16.3%. Besides, the IC50 was 12.1 nM in series [2]; > 10000 nM against Interstitial collagenase; 300 nM at Stromelysin-1; 0.6 nM on Collagenase 3; > 10000 nM against Matrilysin; 670 nM against Neutrophil collagenase. In [4], this compound showed a half-life of 2.59 h.
Regarding `O=C(NO)C1(S(=O)(=O)c2ccc(N3CCN(c4ccccc4F)CC3)cc2)CCOCC1`, in series [1], the Ratio IC50 is 7.8.
Take `COc1ccc(C2CCN(c3ccc(S(=O)(=O)C4(C(=O)NO)CCOCC4)cc3)CC2)c(OC)c1`: the Ratio IC50 in series [1] was 159.
As to `O=C(NO)C1(S(=O)(=O)c2ccc(N3CCN(c4ccc(Cl)cc4)CC3)cc2)CCOCC1`, the bioavailability in series [3] is 7.4%. Further, the IC50 in [2] was 3.7 nM; at Interstitial collagenase it was > 10000 nM; on Stromelysin-1, 130 nM; on Collagenase 3, 1 nM; against Neutrophil collagenase, 1000 nM. Besides, in series [4], the half-life was 1.91 h.
Take `O=C(NO)C1(S(=O)(=O)c2ccc(N3CCN(c4ccccc4Cl)CC3)cc2)CCOCC1`: the Ratio IC50 in series [1] amounted to 4.4.
With `COc1ccc(OC)c(C2CCN(c3ccc(S(=O)(=O)C4(C(=O)NO)CCOCC4)cc3)CC2)c1`, the results for the IC50 (in [2]; at Collagenase 3) were 800 nM and 11.4 nM, respectively. Besides, the Ratio IC50 in series [1] amounted to 70.2.
As to `O=C(NO)C1(S(=O)(=O)c2ccc(N3CCC(c4cccc5ccccc45)CC3)cc2)CCOCC1`, in series [1], the Ratio IC50 was 43.9.
For the compound `Cc1ccc(N2CCN(c3ccc(S(=O)(=O)C4(C(=O)NO)CCOCC4)cc3)CC2)cc1`, the Ratio IC50 in [1] came out at 18.4.
`O=C(NO)C1(S(=O)(=O)c2ccc(N3CCC(c4ccccc4O)CC3)cc2)CCOCC1`: the Ratio IC50 in series [1] was determined as 6.2.
On the same count and under the same terms, to `Cc1ccccc1N1CCN(c2ccc(S(=O)(=O)C3(C(=O)NO)CCOCC3)cc2)CC1` belongs 11.4.
With `O=C(NO)C1(S(=O)(=O)c2ccc(N3CCC(c4ccccc4Cl)CC3)cc2)CCOCC1`, the IC50 is 82 nM in series [2] and 42.5 nM against Collagenase 3. Further, the Ratio IC50 in [1] worked out at 1.9.
For `O=C(NO)C1(S(=O)(=O)c2ccc(N3CCN(c4ccccc4)CC3)cc2)CCN(C2CC2)CC1`, the IC50 in series [2] came out at 5.4 nM; at Collagenase 3 it was 3.3 nM. The Ratio IC50 in series [1] was 1.6.
For `O=C(NO)C1(S(=O)(=O)c2ccc(N3CCN(c4ccccc4)CC3)cc2)CCOCC1`, the Ratio IC50 in series [1] was 13.8.
On to `COc1ccc(N2CCN(c3ccc(S(=O)(=O)C4(C(=O)NO)CCOCC4)cc3)CC2)cc1`, for which the IC50 in [2] was determined as 18.4 nM; against Collagenase 3 it was 0.5 nM. Further, the Ratio IC50 in series [1] was determined as 29.
The corresponding values for `Cc1ccc(N2CCN(c3ccc(S(=O)(=O)C4(C(=O)NO)CCOCC4)cc3)CC2)c(C)c1` are 1400 nM, 28.6 nM and 49.
For `COc1ccc(C2CCN(c3ccc(S(=O)(=O)C4(C(=O)NO)CCOCC4)cc3)CC2)c(C)c1`, the Ratio IC50 in [1] came to 72.1.
On the same count and under the same terms, to `O=C(NO)C1(S(=O)(=O)c2ccc(N3CCC(c4ccccc4)CC3)cc2)CCOCC1` belongs 0.7; to `COc1ccccc1N1CCN(c2ccc(S(=O)(=O)C3(C(=O)NO)CCOCC3)cc2)CC1`, 2.8.
In the case of `O=C(NO)C1(S(=O)(=O)c2ccc(N3CCC(c4ccccc4C(F)(F)F)CC3)cc2)CCOCC1`, the Ratio IC50 in [1] was determined as 31.3.
As to `O=C(NO)C1(S(=O)(=O)c2ccc(N3CCN(c4cccc(C(F)(F)F)c4)CC3)cc2)CCOCC1`, the figures for the IC50 (in series [2]; against Collagenase 3) were 330 nM and 20 nM, respectively. Also, the Ratio IC50 in series [1] was 16.5.
As to `C#CCN1CCC(C(=O)NO)(S(=O)(=O)c2ccc(Sc3ccccc3)cc2)CC1`, the IC50 was 0.33 nM in series [2]; 8660 nM against Interstitial collagenase; 13 nM against Stromelysin-1; > 10000 nM at Matrilysin; 1.8 nM against Neutrophil collagenase.
`COc1cccc(N2CCN(c3ccc(S(=O)(=O)C4(C(=O)NO)CCOCC4)cc3)CC2)c1`: the half-maximal inhibitory concentration (IC50) in series [2] turned out to be 48.5 nM; against Collagenase 3 it was 8 nM. Moreover, in series [1], the Ratio IC50 worked out at 6.1.
On to `Cc1ccccc1C1CCN(c2ccc(S(=O)(=O)C3(C(=O)NO)CCOCC3)cc2)CC1`, for which the values for the IC50 (in series [2]; against Collagenase 3) were 700 nM and 32.7 nM, respectively. For the same compound, the Ratio IC50 in series [1] came to 21.4.

For the origin of these results see ChEMBL document CHEMBL1158637, “Orally bioavailable dual MMP-1/MMP-14 sparing, MMP-13 selective alpha-sulfone hydroxamates” (Bioorg Med Chem Lett, 2010).
